In patent publication US20260234144A1 (TAY THERAPEUTICS LIMITED, priority 2023, published 2026):

Test system: R223X stop codon in the mutated luciferase gene, ADXC8 luciferase reporter cell line
Experiment: cells
Format: cell-based
Conditions: 24 h, ADXC8 cells, 24 hours; for Emax: read-out: Fold Over Control, maximum fold response relative to 200 μM G418; for EC (100% of 200 uM G418 response): read-out: pC100%, negative logarithm of the concentration giving the same response as 200 μM G418

| Compound | Emax [%] | EC (100% of 200 uM G418 response) [µM] |
| --- | --- | --- |
| CNc1nc(N[C@H]2CNC[C@H]2OC)nc2nc(C)cc(C)c12 [Example 370] | 100 to 3000 | 1 to 10 |
| CNc1nc(N[C@H]2C[C@@H](C)N(C)C2)nc2nc(C)cc(C)c12 [Example 371] | 100 to 3000 | 10 to 100 |
| CNc1nc(N[C@@H]2CN[C@H](C)C2)nc2nc(C)cc(C)c12 [Example 372] | 100 to 3000 | 10 to 100 |
| CNc1nc(N[C@H]2C[C@H](C)N(C)C2)nc2nc(C)cc(C)c12 [Example 373] | 100 to 3000 | 1 to 10 |
| CNc1nc(N[C@@H]2CN[C@@H](C)C2)nc2nc(C)cc(C)c12 [Example 374] | 100 to 3000 | 10 to 100 |
| CNc1nc(N[C@@H]2C[C@@H](C)N(C)C2)nc2nc(C)cc(C)c12 [Example 375] | 100 to 3000 | 0.1 to 1 |
| CNc1nc(N[C@H]2CN[C@H](C)C2)nc2nc(C)cc(C)c12 [Example 376] |  | 0.1 to 1 |
| CNc1nc(N[C@@H]2CN(C)C[C@@H]2C)nc2nc(C)cc(C)c12 [Example 377] | 100 to 3000 | 1 to 10 |
| CNc1nc(N[C@@H]2CN(C)C[C@H]2C)nc2nc(C)cc(C)c12 [Example 378] | 100 to 3000 | 1 to 10 |
| CNc1nc(N[C@H]2CN(C)C[C@H]2C)nc2nc(C)cc(C)c12 [Example 379] | 100 to 3000 | 1 to 10 |
| CNc1nc(N[C@H]2CNC[C@H]2C)nc2nc(C)cc(C)c12 [Example 380] | 100 to 3000 | 1 to 10 |
| CNc1nc(N[C@H]2CN(C)C[C@@H]2C)nc2nc(C)cc(C)c12 [Example 381] | 100 to 3000 | 1 to 10 |
| CNc1nc(N[C@H]2CNC[C@@H]2C)nc2nc(C)cc(C)c12 [Example 382] | 100 to 3000 | 1 to 10 |
| CNc1nc(NC2C[C@@H]3CCC2N3)nc2nc(C)cc(C)c12 (stereo partly drawn) [Example 383] |  | 1 to 10 |
| CNc1nc(N[C@H]2CCCN(C)C2)nc2nc(C)cc(C)c12 [Example 384] | 100 to 3000 | 1 to 10 |
| CNc1nc(N[C@@H]2CCCN(C)C2)nc2nc(C)cc(C)c12 [Example 385] |  | 0.1 to 1 |
| CNc1nc(N[C@H]2CCCN(C)CC2)nc2nc(C)cc(C)c12 [Example 386] | 100 to 3000 | 1 to 10 |

| Compound | Emax [%] | EC (100% of 200 uM G418 response) [µM] |
| --- | --- | --- |
| CNc1nc(N[C@H]2CCCNCC2)nc2nc(C)cc(C)c12 [Example 387] | 100 to 3000 | 1 to 10 |
| CNc1nc(N[C@]2(C)CCN(C)C2)nc2nc(C)cc(C)c12 [Example 388] | 0 to 100 | > 31.6 |
| Cc1cc(C)c2c(NCC(F)(F)F)nc(N[C@@H]3CCN(C)C3)nc2n1 [Example 389] | 100 to 3000 | 10 to 100 |
| CCCNc1nc(N[C@@H]2CCN(C)C2)nc2nc(C)cc(C)c12 [Example 390] | 100 to 3000 | 1 to 10 |
| CCNc1nc(N[C@H]2CN(C)C[C@@H]2O)nc2nc(C)cc(C)c12 [Example 391] | 100 to 3000 | 0.1 to 1 |
| CCNc1nc(N[C@H]2CNC[C@@H]2O)nc2nc(C)cc(C)c12 [Example 392] |  | 1 to 10 |
| CCNc1nc(N[C@H]2CN(C)C[C@@H]2F)nc2nc(C)cc(C)c12 [Example 393] | 100 to 3000 | 1 to 10 |
| CCNc1nc(N[C@H]2CNC[C@@H]2F)nc2nc(C)cc(C)c12 [Example 394] |  | 1 to 10 |
| CCNc1nc(N[C@H]2CN(C)C[C@H]2F)nc2nc(C)cc(C)c12 [Example 395] |  | 1 to 10 |
| C=C(C)c1cnc2nc(NC3CCN(C)CC3)nc(N)c2c1 [Example 397] | 100 to 3000 | 1 to 10 |
| Cc1cc(C)c2c(N)nc(N[C@@H]3CN4CCC3CC4)nc2n1 [Example 398] | 0 to 100 | > 31.6 |
| CNc1nc(N[C@@H]2CCCN(Cc3ccccc3)C2)nc2nc(C)cc(C)c12 [Example 399] | 100 to 3000 | 1 to 10 |
| CNc1nc(N[C@@H]2CCCN(C)CC2)nc2nc(C)cc(C)c12 [Example 401] | 100 to 3000 | 1 to 10 |
| CNc1nc(N[C@@H]2CCCNCC2)nc2nc(C)cc(C)c12 [Example 402] |  | 1 to 10 |
| CNc1nc(N[C@H]2CNCC23CC3)nc2nc(C)cc(C)c12 [Example 403] |  | 1 to 10 |
| CNc1nc(NCC2CN3CCC2C3)nc2nc(C)cc(C)c12 (stereo not drawn) [Example 404] | 0 to 100 | > 31.6 |
| CNc1nc(NCC23CCC[C@H]2N(C)CC3)nc2nc(C)cc(C)c12 (stereo partly drawn) [Example 405] | 100 to 3000 | 1 to 10 |
